{"source": "paper PMC12586667", "about": "(Scientific Reports, 2025)", "key": {"[1]": {"tested_on": "WT and genome-edited intestine-liver-on-a-chip (Caco-2 and HepG2 cells)", "experiment": "Drug permeability assay", "format": "in vitro ADME, human", "details": "for drug concentration in the top channel / drug concentration in the bottom channel: WT and genome-edited chips"}, "CYP2D6": {"molecular_target": "CYP2D6 (Homo sapiens, UniProt P10635)", "sequence (P10635 whole entry)": "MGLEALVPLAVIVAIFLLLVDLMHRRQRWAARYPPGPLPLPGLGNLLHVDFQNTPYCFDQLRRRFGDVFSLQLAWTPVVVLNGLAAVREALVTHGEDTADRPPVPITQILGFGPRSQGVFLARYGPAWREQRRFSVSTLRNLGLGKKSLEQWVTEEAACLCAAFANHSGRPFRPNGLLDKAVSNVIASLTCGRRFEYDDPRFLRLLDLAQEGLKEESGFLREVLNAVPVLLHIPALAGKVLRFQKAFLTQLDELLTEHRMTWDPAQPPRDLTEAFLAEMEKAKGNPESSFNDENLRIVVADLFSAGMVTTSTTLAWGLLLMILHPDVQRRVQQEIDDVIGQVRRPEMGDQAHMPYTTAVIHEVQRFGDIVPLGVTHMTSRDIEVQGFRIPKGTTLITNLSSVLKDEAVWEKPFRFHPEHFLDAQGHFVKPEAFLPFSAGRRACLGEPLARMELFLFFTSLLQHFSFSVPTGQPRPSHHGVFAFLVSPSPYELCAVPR", "experiment": "CYP2D6 activity on chip by quantifying 1-OH bufuralol", "format": "in vitro ADME"}, "CYP2C9": {"molecular_target": "CYP2C9 (Homo sapiens, UniProt P11712)", "sequence (P11712 whole entry)": "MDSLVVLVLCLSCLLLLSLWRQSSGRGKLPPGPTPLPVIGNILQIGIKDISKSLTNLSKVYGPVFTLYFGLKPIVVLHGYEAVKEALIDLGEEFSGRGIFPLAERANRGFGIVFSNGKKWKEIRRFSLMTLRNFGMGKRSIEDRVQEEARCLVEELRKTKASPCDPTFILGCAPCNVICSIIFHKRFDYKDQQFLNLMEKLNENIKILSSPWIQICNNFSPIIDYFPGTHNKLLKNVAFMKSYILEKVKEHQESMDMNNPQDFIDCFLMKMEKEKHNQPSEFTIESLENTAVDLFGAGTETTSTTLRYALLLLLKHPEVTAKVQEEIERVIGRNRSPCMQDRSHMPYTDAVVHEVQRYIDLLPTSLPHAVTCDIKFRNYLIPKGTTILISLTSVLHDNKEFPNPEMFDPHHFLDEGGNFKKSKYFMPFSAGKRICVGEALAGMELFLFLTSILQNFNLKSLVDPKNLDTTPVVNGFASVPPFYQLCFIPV", "experiment": "CYP2C9 activity on chip by quantifying 4-OH diclofenac", "format": "in vitro ADME"}, "[2]": {"experiment": "Measurement of drug absorption", "format": "physicochemical", "details": "within 2 h"}, "[3]": {"details": "model drugs with minimal first-pass effects; cited from earlier work"}, "[4]": {"details": "coadministration; cited from earlier work"}, "[5]": {"experiment": "Stability of metabolite in medium containing 10% FBS", "format": "in vitro ADME", "details": "could not be measured"}, "CYP3A4": {"molecular_target": "CYP3A4 (Homo sapiens, UniProt P08684)", "sequence (P08684 whole entry)": "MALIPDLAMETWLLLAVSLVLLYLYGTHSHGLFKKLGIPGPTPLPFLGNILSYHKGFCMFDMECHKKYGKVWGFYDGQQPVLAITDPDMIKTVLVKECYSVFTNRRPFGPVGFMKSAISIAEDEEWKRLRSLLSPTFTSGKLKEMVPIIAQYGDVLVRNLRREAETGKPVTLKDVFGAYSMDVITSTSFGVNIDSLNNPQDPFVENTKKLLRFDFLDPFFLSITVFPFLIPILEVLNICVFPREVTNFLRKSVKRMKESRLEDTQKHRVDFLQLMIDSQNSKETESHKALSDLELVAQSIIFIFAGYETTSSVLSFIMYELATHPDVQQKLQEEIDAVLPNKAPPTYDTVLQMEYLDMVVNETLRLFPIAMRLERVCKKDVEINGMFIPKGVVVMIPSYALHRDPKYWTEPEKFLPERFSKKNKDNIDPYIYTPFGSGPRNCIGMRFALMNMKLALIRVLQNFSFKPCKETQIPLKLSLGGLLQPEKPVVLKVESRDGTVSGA", "experiment": "CYP3A4 activity on chip by quantifying α-OH triazolam", "format": "in vitro ADME", "details": "flow conditions"}, "CYP1A2": {"molecular_target": "T1, CYP1A2 (Homo sapiens, UniProt P05177)", "T1 sequence (P05177 1-516)": "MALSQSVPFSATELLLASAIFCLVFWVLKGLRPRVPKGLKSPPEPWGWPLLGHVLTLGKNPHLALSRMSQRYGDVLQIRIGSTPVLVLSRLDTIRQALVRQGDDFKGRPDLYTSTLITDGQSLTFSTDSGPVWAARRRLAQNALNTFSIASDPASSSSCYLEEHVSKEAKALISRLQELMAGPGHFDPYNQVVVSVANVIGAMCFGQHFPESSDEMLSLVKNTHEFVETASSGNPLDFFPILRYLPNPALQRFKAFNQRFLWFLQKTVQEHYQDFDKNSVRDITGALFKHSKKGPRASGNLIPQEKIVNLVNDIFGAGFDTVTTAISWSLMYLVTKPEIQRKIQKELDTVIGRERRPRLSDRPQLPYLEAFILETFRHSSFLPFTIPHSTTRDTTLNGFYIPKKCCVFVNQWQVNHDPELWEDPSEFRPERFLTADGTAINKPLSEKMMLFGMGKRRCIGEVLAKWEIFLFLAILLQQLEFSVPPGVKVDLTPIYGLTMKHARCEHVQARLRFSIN", "experiment": "CYP1A2 activity on chip by quantifying ISOPRO", "format": "in vitro ADME"}, "[6]": {"tested_on": "intestine-liver-on-a-chip (Caco-2 and HepG2 cells)", "experiment": "Lucifer yellow permeability assay", "format": "in vitro ADME, human", "details": "WT and genome-edited chips vs WT or genome-edited Caco-2 mono-culture"}, "[7]": {"details": "both static and flow conditions"}}}
{"compound": "O=C(O)Cc1ccccc1Nc1c(Cl)cccc1Cl", "note": "[diclofenac]", "values": [{"measurement": "drug concentration in the top channel", "setting": "[1]; [7]", "result": "slightly reduced compared to the initial concentration of 10 μM"}]}
{"compound": "1’-hydroxy bufuralol [1-OH bufuralol]", "values": [{"measurement": "metabolite concentration, genome-edited chip vs WT chip", "setting": "CYP2D6; flow, top and bottom channels, 24 and 48 h", "result": "higher in the genome-edited chip compared to the WT chip"}, {"measurement": "metabolite concentration, flow vs static conditions", "setting": "CYP2D6; genome-edited chip", "result": "higher than that observed in the static conditions"}]}
{"compound": "O=C(O)Cc1ccccc1Nc1c(Cl)cc(O)cc1Cl", "note": "[4-OH diclofenac, 4’-hydroxy diclofenac]", "values": [{"measurement": "metabolite concentration, genome-edited chip vs WT chip", "setting": "CYP2C9; flow, top and bottom channel, 24 and 48 h", "result": "higher in the genome-edited chip Flow compared to the WT chip Flow"}, {"measurement": "metabolite concentration, static vs flow conditions", "setting": "CYP2C9; top channel of genome-edited chip", "result": "higher than that under flow conditions"}]}
{"compound": "CC(C)NCC(O)COc1cccc2ccccc12", "note": "(centres unmarked) [propranolol]", "values": [{"measurement": "adsorption onto the PDMS device", "setting": "[2]", "result": "substantially adsorbed"}, {"measurement": "drug concentration in the top channel", "setting": "[1]; [7]", "result": "rapidly decreased"}, {"measurement": "drug concentration, genome-edited chips vs WT chips", "setting": "[1]; flow conditions, 24 and 48 h", "result": "significantly lower than those in the WT chips"}, {"measurement": "drug concentration in the bottom channel", "setting": "[1]; flow conditions", "result": "increased substantially"}]}
{"compound": "Cc1nnc2n1-c1ccc(Cl)cc1C(c1ccccc1Cl)=NC2", "note": "[triazolam]", "values": [{"measurement": "adsorption onto the PDMS device", "setting": "[2]", "result": "substantially adsorbed"}, {"measurement": "drug concentration in the top channel", "setting": "[1]; [7]", "result": "rapid decrease in concentration"}, {"measurement": "drug concentration, genome-edited chips vs WT chips", "setting": "[1]; flow conditions, 24 and 48 h", "result": "lower than those in WT chips"}, {"measurement": "drug concentration in the bottom channel", "setting": "[1]; flow conditions", "result": "increased substantially"}]}
{"compound": "CC(=O)Nc1ccc(O)cc1", "note": "[APAP, acetaminophen]", "values": [{"measurement": "oral bioavailability (F)", "setting": "[3]", "result": "> 0.7"}, {"measurement": "drug concentration in the top channel, genome-edited chip vs WT chip", "setting": "[1]; flow conditions, 24 and 48 h", "result": "slightly higher than those in the WT chip"}, {"measurement": "drug concentration in the top channel", "setting": "[1]; flow conditions, 24 and 48 h, 10 μM", "result": "decreased compared to the initial concentration of 10 μM"}, {"measurement": "drug concentration in the bottom channel", "setting": "[1]; flow conditions", "result": "increased substantially"}, {"measurement": "drug concentration in the bottom channel", "setting": "[1]; static conditions, 10 μM", "result": "increased in a time-dependent manner"}, {"measurement": "drug concentration in the top channel", "setting": "[1]; static conditions, 10 μM", "result": "remained constant"}]}
{"compound": "CCC(C)n1ncn(-c2ccc(N3CCN(c4ccc(OCC5COC(Cn6cncn6)(c6ccc(Cl)cc6Cl)O5)cc4)CC3)cc2)c1=O", "note": "(centres unmarked) [itraconazole]", "values": [{"measurement": "effect on the area under the curve (AUC) of triazolam", "setting": "[4]", "result": "increase the area under the curve (AUC) of triazolam"}]}
{"compound": "CC(C)NCC(O)COc1ccc(O)c2ccccc12", "note": "(centres unmarked) [4-OH propranolol, 4-hydroxy propranolol]", "values": [{"measurement": "stability", "setting": "[5]", "result": "extremely unstable"}]}
{"compound": "OCc1nnc2n1-c1ccc(Cl)cc1C(c1ccccc1Cl)=NC2", "note": "[α-OH triazolam, α-hydroxy triazolam]", "values": [{"measurement": "metabolite concentration, genome-edited chip vs WT chip", "setting": "CYP3A4", "result": "higher than that observed in the WT chip"}]}
{"compound": "CCc1cccc2cc(C(O)CNC(C)(C)C)oc12", "note": "(centres unmarked) [bufuralol]", "values": [{"measurement": "adsorption onto the PDMS device", "setting": "[2]", "result": "substantially adsorbed"}, {"measurement": "drug concentration, genome-edited chips vs WT chips", "setting": "[1]; after 48 h", "result": "slightly lower in the genome-edited chips than in the WT chips"}, {"measurement": "drug concentration in the top channel", "setting": "[1]; [7]", "result": "rapid decrease in concentration"}, {"measurement": "drug concentration in the bottom channel", "setting": "[1]; flow conditions", "result": "increased substantially compared to static conditions"}]}
{"compound": "NCC(O)COc1cccc2ccccc12", "note": "(centres unmarked) [ISOPRO, desisopropylpropranolol]", "values": [{"measurement": "metabolite concentration in the bottom channel", "setting": "CYP1A2; flow conditions vs static", "result": "increased under flow conditions"}, {"measurement": "metabolite concentration in the top channel", "setting": "CYP1A2; flow conditions vs static", "result": "no change was observed"}, {"measurement": "metabolite concentration, genome-edited chip vs WT chip", "setting": "CYP1A2; flow, top and bottom channels, 1 μM propranolol", "result": "higher in the genome-edited chip under flow conditions compared to the WT chip"}, {"measurement": "time of peak concentration in the bottom channel", "setting": "CYP1A2; genome-edited chip, flow conditions", "result": 24, "unit": "h"}]}
{"compound": "Cn1c(=O)c2c(ncn2C)n(C)c1=O", "note": "[caffeine]", "values": [{"measurement": "oral bioavailability (F)", "setting": "[3]", "result": "> 0.7"}]}
{"compound": "Lucifer Yellow CH [LY]", "values": [{"measurement": "Papp of LY in chips compared to Caco-2 cells mono-culture", "setting": "[6]", "result": "lower in both the WT and genome-edited chips"}]}
